Test results taken from publication PMC9820559, “Investigation of the Fuzzy Complex between RSV Nucleoprotein and Phosphoprotein to Optimize an Inhibition Assay by Fluorescence Polarization” (International Journal of Molecular Sciences, 2022).
Square brackets hold non-standard residues; d marks the D form. Ends that are not written are not given here. Peptide text beside a SMILES is read from it. pS = N[C@@H](COP(=O)(O)O)C(=O)O

B1: pP11 peptide (RSV P C-terminal 11-mer with O-phosphoserines at 232 and 237) (peptide)
peptide: D[pS]DNDL[pS]LEDF
notes: C-terminal 11 residues of RSV phosphoprotein P with Ser232 and Ser237 as O-phosphoserines; source: bought: GeneCust (synthetic peptide, >95% purity)

Legend:
RSV NNTD = target: T1, RSV NNTD (Human respiratory syncytial virus A, UniProt P03418); assay: NMR titration of 15N-labeled NNTD (1H-15N HSQC chemical shift perturbations); type: binding; details: 20 mM MES pH 6.5, 250 mM NaCl, 20 °C; single site model; mean of 26 individual values; read-out: mean Kd from residue-specific Kds
T1 construct: The N-terminal domain NNTD (residues 31–252), containing a C-terminal 6x histidine tag; 6xHis (C); made in house; host or cells: E. coli BL21(DE3)
Description: Here, as P protein is constitutively phosphorylated on Ser232 and Ser237 residues in cells, we first investigated the impact of phosphorylation on the affinity of the NNTD-PCtail complex. We performed an NMR titration experiment by adding increasing amounts of pP11 peptide, where Ser232 and Ser237 residues were replaced by O-phosphoserines (pSer, Figure 1A), to a solution of ^15N-labeled NNTD, and measured 2D ^1H-^15N HSQC spectra (Figure 2A). We worked in the same buffer as with P12. At pH 6.5, the pSer sidechains are expected to be mostly negatively charged. Addition of pP11 induced perturbations in the HSQC spectrum of NNTD, in particular chemical shift perturbations (CSPs). […] We measured combined ^1H and ^15N amide CSPs (Equation (1)) for NNTD signals in a fast chemical exchange regime, i.e., signals that shifted in the spectrum without broadening at intermediate titration points (e.g., Ile129 in Figure 2A). Significant CSPs were located in and around the P-binding pocket, confirming that pP11 binds to the previously determined P-binding epitope on NNTD (Figure 2B,C). […]
Overall, signals of bound NNTD were broader than those of unbound NNTD (Figure 2A). […] From chemical shift differences measured for these residues we determined an exchange rate kex of ~800 s^−1 (from Equation (3)) between free and bound NNTD, which indicates a fast dynamic process. […]

RSV N-RNA complex = target: T2, RSV N-RNA complex (Human respiratory syncytial virus A, UniProt P03418); assay: Fluorescence polarization inhibition of N-RNA binding to fluorescent probes; details: Ki, probe BCN11EE, [N-RNA] 1 µM; IC50-to-Ki server
T2 construct: Full-length N was produced by co-expression with the C-terminal domain of RSV P protein in E. coli BL21(DE3); made in house; host or cells: E. coli BL21(DE3), co-transformed with pET-N and pGEX-P(161–241)
Description: We next performed inhibition experiments for the F11-(N-RNA) complex by M76 (Figure 4B). FP values decreased with increasing competitor concentration. At saturation, FP nearly reached the value of free F11, showing that the F11 peptide could be nearly completely displaced. Since the same concentration range was used for NNTD and N-RNA, poor solubility of M76 can be ruled out to explain the saturation observed before complete displacement of F11 in the presence NNTD (Figure 3C). This reinforces the hypothesis of a second binding site on NNTD, outside the canonical P-binding site. […]
To probe the potency of M76 as an inhibitor, we carried out competition experiments with the M76 molecule and several BCNn peptides. M76 was able to displace the fluorescent probes from N-RNA, and inhibition curves were obtained (Figure 8E). Since we used different N concentrations to have similar dynamic ranges of FP for the series of fluorescent peptides, we cannot directly compare M76 IC50s. However, Kis may be compared.
Fluorescence polarization measurements were carried out on a Paradigm Detection Platform (Beckman Coulter, Brea, CA, USA) operating with a microplate reader, a fluorescein detection cartridge (excitation range 485/20 nm, emission range 535/25 nm for both parallel and perpendicular components) and the SpectraMax Pro 6.1 software (Molecular Devices, San Jose, CA, USA). Samples were placed in polystyrene black flat bottom 96-well microplates (Cellstar, Greiner bio-one, Frickenhausen, Germany) with 20 µL final volume in each well. If not stated otherwise, the final concentration of fluorescent ligands was 200 nM. The buffer was either 20 mM MES pH 6.5, salt-free or with 250 mM NaCl, or 20 mM Tris pH 8.0 salt-free or with 100 mM NaCl, supplemented with 0.01% Brij-35. Mixing was done using the corresponding plate reader option. The temperature was set to 20 °C. Data were recorded in top reading mode. Measurements were done in triplicate and after an incubation time of 30 min, if not indicated otherwise. Fluorescence polarization (FP) in mFP units was determined from the parallel (I∥) and perpendicular (I⊥) components of the emitted light according to Equation (4). A grating factor G of 1.2 was determined using 1 nM fluorescein in 1 mM NaOH and assuming a theoretical FP of 27 mFP [48]. Background signal was measured from wells containing only buffer, and the mean value was subtracted from each I∥ and I⊥ component. (4) FP (mP)=1000×(I∥−G∗I⊥)/(I∥+G×I⊥)
To assess inhibition of a complex between a fluorescent probe and N protein by peptides or the M76 molecule, the concentration of N was set to work with an FP range comprised between FPmin and ~80% FPmax. Peptides were added from 1 or 2 mM stock solution in water at neutral pH. M76 was added from 10 or 20 mM stock solutions in ethanol or in DMSO. […] Inhibition data were fitted with Origin 7, and in parallel with the Excel solver module. All data were compatible with an absence of cooperativity. FPmax and FPmin were fitted, and the maximal inhibition %i,max was set to 100%. (11) %i=100×[1−(FP−FPmin)/(FPmax−FPmin)] (12) %i=%i,max×[inhibitor]/[inhibitor]+IC50
Inhibition constants Ki were calculated on the IC50-to-Ki converter for a protein-ligand-inhibitor system (https://bioinfo-abcc.ncifcrf.gov/IC50_Ki_Converter/index.php, accessed on 24 August 2022), assuming a competitive mechanism (Equation (13)). This tool takes into account the free concentrations of protein and ligand. (13) Ki=(IC50−[protein]/2)/([peptide]/Kd+1)

[1] = target: T3, RSV N-RNA complex (full-length N protein in ring-shaped complexes with bacterial RNA) (human respiratory syncytial virus, UniProt P03418 1-391); assay: fluorescence polarisation; competition: unlabeled pP11 varied against 200 nM BCN_(11EE) on 1 µM N-RNA; Tris pH 8 buffer; Hill equation; Ki from the IC50-to-Ki server; details: both partners purified
T3 construct: human RSV nucleoprotein N, full length; concentrations are of N protomer; also called N-RNA rings; source: in lysate for the co-purification; purified (glutathione-Sepharose, thrombin, Superdex 200) as N-RNA complex; copies: 10-11
T3 sequence (looked up): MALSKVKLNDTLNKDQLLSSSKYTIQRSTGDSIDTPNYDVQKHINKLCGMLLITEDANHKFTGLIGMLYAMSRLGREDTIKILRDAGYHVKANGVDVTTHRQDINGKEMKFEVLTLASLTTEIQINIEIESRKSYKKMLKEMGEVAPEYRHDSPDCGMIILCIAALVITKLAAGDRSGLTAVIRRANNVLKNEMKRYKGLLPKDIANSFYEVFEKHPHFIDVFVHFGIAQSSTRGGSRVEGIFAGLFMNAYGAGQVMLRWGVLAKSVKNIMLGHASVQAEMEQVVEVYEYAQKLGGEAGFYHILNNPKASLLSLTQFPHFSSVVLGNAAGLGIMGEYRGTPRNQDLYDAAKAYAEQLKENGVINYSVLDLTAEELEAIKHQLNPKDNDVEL

Molecule | Kd (RSV NNTD) [µM] | Ki (RSV N-RNA complex) [µM] | IC50 [1] [µM]
CC(C)C[C@H](NC(=O)[C@H](COP(=O)(O)O)NC(=O)[C@H](CC(C)C)NC(=O)[C@H](CC(=O)O)NC(=O)[C@H](CC(N)=O)NC(=O)[C@H](CC(=O)O)NC(=O)[C@H](COP(=O)(O)O)NC(=O)[C@@H](N)CC(=O)O)C(=O)N[C@@H](CCC(=O)O)C(=O)N[C@@H](CC(=O)O)C(=O)N[C@@H](Cc1ccccc1)C(=O)O [pP11] (H-D[pS]DNDL[pS]LEDF-OH) | 17 ± 4.5 | 1.4 | 
B1 |  |  | 6.9 ± 1.2
